Data from US20250205152A1, “METHOD OF PREVENTING AGE-RELATED MACULAR DEGENERATION BY ADMINISTERING AN OCULAR DRUG DELIVERY INSERT” (EYEPOINT PHARMACEUTICALS, INC., priority 2022, published 2025).
Entries after “also recorded” stand apart in the source; their conditions may differ.

Experiments:
[1] = Solubility of vorolanib in water; format: physicochemical
Description: Vorolanib has the chemical designation (S,Z)—N-(1-(Dimethylcarbamoyl) pyrrolidin-3-yl)-5-((5-fluoro-2-oxoindolin-3-ylidene)methyl)-2,4-dimethyl-1H-pyrrole-3-carboxamide. Synonyms include the term “X-82”. The molecular formula is C23H26FN5O3. The solubility of vorolanib in water is less than 10 μg/mL.

[2] = system: sodium Hyaluronate-induced retinal detachment; assay: Sodium hyaluronate-induced retinal detachment model: OKT and OCT; format: in vivo, C57Bl/6 mice
Description: (§1) An 18-day study was conducted in age-matched and experimentally naive C57Bl/6 mice. Prior to experiments, the mice were randomly distributed into two separate study arms, and identification numbers were assigned to individual mice. Prior to dosing initiation, baseline experiments were conducted to measure visual acuity and contrast vision by optokinetic tracking (OKT), and to measure retinal and outer nuclear layer (ONL) thickness in images obtained by optical coherence tomography (OCT). On Day 1, and continuing until Day 18, the mice received once a day oral administration of vehicle (Arm 1), or Vorolanib at 40 mg/kg (Arm 2). On Day 2, bilateral subretinal injection of sodium hyaluronate was performed to induce retinal detachment. On Day 16, visual acuity and contrast vision thresholds were measured, and on Day 17, OCT was performed to measure retinal and ONL thickness. On Day 18, terminal collections were performed at either 30 minutes, or 4 hours, post-administration, with whole blood collected and processed to plasma, left eyes collected and fixed for histology, and right eyes collected and dissected to yield cornea, lens, retinal pigment epithelium (RPE)/choroid/sclera, and retina, separately.
Mouse eyes were dilated and the animals were anesthetized according to standard operating procedures. The mouse was placed on a regulated heating pad, and the posterior pole was visualized under magnification. A 12.7 mm 30-gauge insulin syringe was used to puncture the cornea just above the corneal limbus, avoiding any contact with the sclera and lens. The transvitreal subretinal injections were performed using a 10 μL Hamilton syringe with a 33-gauge blunt needle inserted through the corneal puncture across the vitreous, with the shaft aimed at the back of the eyecup, avoiding any trauma to the lens or iris. A total volume of 1 μL was delivered.
OKT is performed using an OptoMotry designed for rodent use (Cerebral Mechanics Inc.). In this non-invasive assessment, mice are placed onto a platform surrounded by 4 LCD screens which reside within a light-protected box. Visual stimuli are then presented to the mouse via the LCD screens and a masked observer visualizes and scores optokinetic tracking reflexes from a digital camcorder which is mounted on the top of the box. The monitors display continuous vertical sine wave gratings rotating across the monitors at 12 degrees/s which appear to the animal as a virtual three-dimensional rotating […]. The rotation of the virtual cylinder is constantly centered at the animal's viewing position to ensure a consistent viewing distance. Tracking movements are identified as slow, steady head movements in the direction of the rotating grating. For measurements of spatial frequency threshold, mice were tested at a range of spatial frequencies from 0.064 to 0.464 cycles/degree. […] All measurements of contrast threshold were performed at a spatial frequency threshold of 0.064 cycles/degree. The contrast threshold is calculated as a reciprocal of the Michelson contrast from the screen's luminance (maximum−minimum)/(maximum+minimum). The reciprocal of the contrast threshold is plotted.
Animals were anesthetized and eyes were dilated according to standard procedures. Following sedation and dilation, animals were secured on a platform and presented to a Micron
IV OCT module (Phoenix Research Inc.) for imaging. The total retina thickness and outer nuclear layer thickness were measured from vertical and horizontal scans within each eye, and the data was plotted as the average retinal thickness across the scans.
Graphs were generated using GraphPad Prism (v. 9.4.0). […]

[3] = Plasma and ocular tissue levels after oral vorolanib in the retinal detachment study; format: in vivo, C57Bl/6 mice; conditions: 40 mg/kg oral once a day
Description: as §1
Day 18 at 30 min±5 min following oral administration of vehicle or test agent: Terminal plasma collection; Enucleation of eyes with left eyes fixed in 10% NBF and right eyes dissected to yield cornea, lens, RPE/choroid/sclera, and retina, with tissue snap frozen in liquid N2 with tube and tissue weights recorded (n=4 mice/arm).
Day 18 at 4 hr±15 min following oral administration of vehicle or test agent: Terminal plasma collection; Enucleation of eyes with left eyes fixed in 10% NBF and right eyes dissected to yield cornea, lens, RPE/choroid/sclera, and retina, with tissue snap frozen in liquid N2 with tube and tissue weights recorded (n=4 mice/arm).
Oral gavage was performed on conscious mice by trained personnel; no anesthesia was required. […]

[4] = system: Swine (Mini-pig) Model of Laser-Induced Choroidal Neovascularization (CNV); assay: Laser-induced choroidal neovascularization model, fluorescein angiography (CTLF); format: in vivo; conditions: Day 0
Description: Safety and efficacy of a vorolanib insert were evaluated in a Swine (Mini-pig) Model of Laser-Induced Choroidal Neovascularization (CNV). The primary objective of this study was to evaluate the long-term safety and inhibition of vascular permeability and neovascularization in a laser-induced model of choroidal neovascularization (CNV) using a vorolanib insert in swine.
On the day of lasering (Groups 1-4) animals were treated with an 810 nm diode laser delivered through an indirect ophthalmoscope. Approximately 6 single laser spots were placed between retinal veins. Both eyes underwent laser treatment according to the schedule in the table above.
On the day of intravitreal injections animals were anesthetized and the eyes were aseptically prepared. […] Animals were allowed to recover normally from the procedure. The pigs were given a topical drop of antibiotic ophthalmic solution 4-6 hours later, and then BID for 2 additional days with at least 6 hours between doses. Animals were dosed on either Day 0 immediately following laser CNV induction or 7 days prior to laser CNV induction according to the schedule in the table above.
Flourescein Angiography was done in both eyes in anesthetized animals at the timepoints as indicated in the experimental design table.

[5] = 40 mg/kg oral once a day, baseline to Day 17, OCT

Row | Compound | solubility [1] | overall effect in retinal detachment model ([2]; 40 mg/kg once a day for 18 consecutive days, compared to vehicle) | mean spatial frequency threshold (SFT) ([2]; 40 mg/kg oral once a day, Day 16) | contrast thresholds compared to vehicle ([2]; 40 mg/kg oral once a day, Day 16, P=0.0009) | loss of contrast vision, baseline to Day 16 ([2]; 40 mg/kg oral once a day, OKT) | loss of visual acuity, baseline to Day 16 ([2]; 40 mg/kg oral once a day, OKT) | loss of ONL thickness in horizontal scans [2, 5] | loss of ONL thickness in vertical scans [2, 5] | total retinal thickness across the treatment arms ([2]; 40 mg/kg oral vs vehicle, OCT) | difference in mean SFT versus vehicle ([2]; Day 16) | mean retinal thickness across vertical and horizontal scans ([2]; across both arms and timepoints) | presence in plasma ([3]; 18 consecutive days) | tissue distribution ([3]; 18 days) | detection in ocular tissues ([3]; up to 4 hours following the terminal dose) | efficacy in laser CNV model ([4]; 2 mg IVT) | Corrected Total Lesion Fluorescence (CTLF) value, change from Day 7 to Day 28 ([4]; Group 1: 2 mg, 50 μL/eye IVT)
1 | Cc1[nH]c(/C=C2\C(=O)Nc3ccc(F)cc32)c(C)c1C(=O)N[C@H]1CCN(C(=O)N(C)C)C1 [vorolanib, (S,Z)—N-(1-(Dimethylcarbamoyl)pyrrolidin-3-yl)-5-((5-fluoro-2-oxoindolin-3-ylidene)methyl)-2,4-dimethyl-1H-pyrrole-3-carboxamide] | < 10 µg/mL | significant neuroprotective effect | 0.306 cycles/degree | significantly higher; also recorded: statistically significant improvement | 41% | 23% | no loss | 1% | no statistically significant differences | not statistically significant | 222-229 μm | present in the plasma up to 4 hours | primarily in RPE/Choroid/Sclera tissue at levels that exceed plasma concentrations | within detectable range in all ocular tissues tested, except lens tissue | – | –
2 | aflibercept: VEGF inhibitor (Regeneron), intravitreal injection, positive control | – | – | – | – | – | – | – | – | – | – | – | – | – | – | normal amounts of efficacy | largest reduction
